Source: patent publication US20260356804A1, “SODIUM CHANNEL BLOCKING COMPOUNDS, DERIVATIVES THEREOF, AND METHODS OF THEIR USE” (LATIGO BIOTHERAPEUTICS, INC., priority 2022, published 2026)
Structures can show the parent of a compound that is named as a salt. Where two headings read alike, the source gives them in different places. Values belong to the molecule of their own block, whether it stands above or below them.

Legend:
human Nav1.8/β1 = biological target: T1, human Nav1.8/β1 (Homo sapiens, UniProt Q9Y5Y9); assay: Compound Profiling Human NaV1.8/β1 Cell Line—Sophion QPatch II Assay (automated patch clamp, stably transfected HEK293 cells); assay type: cell-based
T1 construct: host or cells: HEK293
Experimental: Compounds were tested on recombinant human Nav1.8/β1 stably transfected HEK293 (Eurofins, CYL3025, St. Charles, MO) cells using the QPatch II system (Sophion Bioscience A/S, Ballerup—Denmark), an automated patch clamp device. Cells were cultured at 37° C./5% CO2 in DMEM/F-12 supplemented with 10% fetal bovine serum, 1× Non-Essential Amino Acids, and selection antibiotics (0.625 μg/mL Puromycin, 400 μg/mL Geneticin, and 100 μg/mL Hygromycin). One or two days prior to recording, cells were moved to a lower temperature 30° C./5% CO2 incubator to increase surface expression of the channels. On the day of the recordings, cells in culture dishes were washed twice with Ca^2+—Mg^2+ free DPBS and treated with Detachin (Genlantis, San Diego) for 3 minutes and then resuspended in Serum Free Medium (EX-CELL® ACF CHO Medium for Cell Culture (Sigma-Aldrich) supplemented with 0.04 mg/mL soybean trypsin Inhibitor and 25 mM HEPES (all components supplied by Sigma-Aldrich, St. Louis, MO) and allowed to recover for a minimum of 20 minutes in the onboard QStirrer. All experiments were performed at ambient temperature. Intracellular solution contained (mM): CsCl, 50; CsF, 90; MgCl2, 2; EGTA, 5; HEPES, 10; pH adjusted to 7.2 with CsOH. Extracellular solution contained (mM): NaCl, 137; KCl, 4; CaCl2), 3.8; MgCl2, 1; HEPES, 10; Glucose, 10; pH adjusted to 7.4 with NaOH. [LEFT OUT].
Compounds were tested in an interleaved manner across two cohorts of wells to develop an aggregate 8-point concentration response curve. Final concentrations include 0.1% DMSO and 0.03% pluronic Acid. In general, the concentration range spans a range from 0.01-300 nM. Compounds were diluted 1:10 with extracellular solution within their respective cohort. DMSO (0.1% by volume) served as a vehicle control to ascertain assay performance.
(§1) Whole cell patch clamp recordings were conducted according to Sophion standard procedure for QPatch II®. Cells were held at a holding potential of −120 mV. A depolarizing step to 10 mV for 30 ms was applied to elicit inward Na^+ currents. Inter-sweep interval was 15 sec. Following establishment of the whole-cell configuration in extracellular solution, cells were washed twice in extracellular solution containing 0.1% DMSO and 0.03% pluronic acid to stabilize the baseline current. Compounds were then applied by the QPatch II system into each well in an ascending manner within cohort and the current was recorded for five minutes for each concentration. Percent of current remaining was determined by taking the average of the last 5 sweeps within each concentration and normalizing to the latest pre-compound saline period. The potency (IC50) values of the compounds were only assessed against resting state block. Wells whose initial sodium current magnitude were below 2 nA or whole cell resistance fell below 100 MΩ were excluded from analysis.
as §1, with “MO” for “MΩ”, “analysis. […]” for “analysis.”

human Nav1.8/b3 = biological target: T2, human Nav1.8/b3 (Homo sapiens, UniProt Q9Y5Y9); assay: Compound Profiling Human NaV1.8/β3 Cell Line—SyncroPatch384PE Assay (automated patch clamp, stably transfected CHO cells); assay type: cell-based; conditions: Nav1.8/b3 CHO cells
T2 construct: expressed in transfected cells; host or cells: CHO

[1] = P1 (IC50, resting state block), P1 measurement, resting state block, holding potential −120 mV, third set of compounds
[2] = P2 (IC50, inactivated state block), P2 measurement, inactivated state block, inactivation step −35 mV 10 sec, third set of compounds
[3] = P1 (IC50, resting state block), P1 measurement, resting state block, holding potential −120 mV, fourth set of compounds
[4] = P2 (IC50, inactivated state block), P2 measurement, inactivated state block, inactivation step −35 mV 10 sec, fourth set of compounds
[5] = P1 (IC50, resting state block), P1 measurement, resting state block, holding potential −120 mV, first set of compounds
[6] = P2 (IC50, inactivated state block), P2 measurement, inactivated state block, inactivation step −35 mV 10 sec, first set of compounds

T2 sequence (Q9Y5Y9 whole entry): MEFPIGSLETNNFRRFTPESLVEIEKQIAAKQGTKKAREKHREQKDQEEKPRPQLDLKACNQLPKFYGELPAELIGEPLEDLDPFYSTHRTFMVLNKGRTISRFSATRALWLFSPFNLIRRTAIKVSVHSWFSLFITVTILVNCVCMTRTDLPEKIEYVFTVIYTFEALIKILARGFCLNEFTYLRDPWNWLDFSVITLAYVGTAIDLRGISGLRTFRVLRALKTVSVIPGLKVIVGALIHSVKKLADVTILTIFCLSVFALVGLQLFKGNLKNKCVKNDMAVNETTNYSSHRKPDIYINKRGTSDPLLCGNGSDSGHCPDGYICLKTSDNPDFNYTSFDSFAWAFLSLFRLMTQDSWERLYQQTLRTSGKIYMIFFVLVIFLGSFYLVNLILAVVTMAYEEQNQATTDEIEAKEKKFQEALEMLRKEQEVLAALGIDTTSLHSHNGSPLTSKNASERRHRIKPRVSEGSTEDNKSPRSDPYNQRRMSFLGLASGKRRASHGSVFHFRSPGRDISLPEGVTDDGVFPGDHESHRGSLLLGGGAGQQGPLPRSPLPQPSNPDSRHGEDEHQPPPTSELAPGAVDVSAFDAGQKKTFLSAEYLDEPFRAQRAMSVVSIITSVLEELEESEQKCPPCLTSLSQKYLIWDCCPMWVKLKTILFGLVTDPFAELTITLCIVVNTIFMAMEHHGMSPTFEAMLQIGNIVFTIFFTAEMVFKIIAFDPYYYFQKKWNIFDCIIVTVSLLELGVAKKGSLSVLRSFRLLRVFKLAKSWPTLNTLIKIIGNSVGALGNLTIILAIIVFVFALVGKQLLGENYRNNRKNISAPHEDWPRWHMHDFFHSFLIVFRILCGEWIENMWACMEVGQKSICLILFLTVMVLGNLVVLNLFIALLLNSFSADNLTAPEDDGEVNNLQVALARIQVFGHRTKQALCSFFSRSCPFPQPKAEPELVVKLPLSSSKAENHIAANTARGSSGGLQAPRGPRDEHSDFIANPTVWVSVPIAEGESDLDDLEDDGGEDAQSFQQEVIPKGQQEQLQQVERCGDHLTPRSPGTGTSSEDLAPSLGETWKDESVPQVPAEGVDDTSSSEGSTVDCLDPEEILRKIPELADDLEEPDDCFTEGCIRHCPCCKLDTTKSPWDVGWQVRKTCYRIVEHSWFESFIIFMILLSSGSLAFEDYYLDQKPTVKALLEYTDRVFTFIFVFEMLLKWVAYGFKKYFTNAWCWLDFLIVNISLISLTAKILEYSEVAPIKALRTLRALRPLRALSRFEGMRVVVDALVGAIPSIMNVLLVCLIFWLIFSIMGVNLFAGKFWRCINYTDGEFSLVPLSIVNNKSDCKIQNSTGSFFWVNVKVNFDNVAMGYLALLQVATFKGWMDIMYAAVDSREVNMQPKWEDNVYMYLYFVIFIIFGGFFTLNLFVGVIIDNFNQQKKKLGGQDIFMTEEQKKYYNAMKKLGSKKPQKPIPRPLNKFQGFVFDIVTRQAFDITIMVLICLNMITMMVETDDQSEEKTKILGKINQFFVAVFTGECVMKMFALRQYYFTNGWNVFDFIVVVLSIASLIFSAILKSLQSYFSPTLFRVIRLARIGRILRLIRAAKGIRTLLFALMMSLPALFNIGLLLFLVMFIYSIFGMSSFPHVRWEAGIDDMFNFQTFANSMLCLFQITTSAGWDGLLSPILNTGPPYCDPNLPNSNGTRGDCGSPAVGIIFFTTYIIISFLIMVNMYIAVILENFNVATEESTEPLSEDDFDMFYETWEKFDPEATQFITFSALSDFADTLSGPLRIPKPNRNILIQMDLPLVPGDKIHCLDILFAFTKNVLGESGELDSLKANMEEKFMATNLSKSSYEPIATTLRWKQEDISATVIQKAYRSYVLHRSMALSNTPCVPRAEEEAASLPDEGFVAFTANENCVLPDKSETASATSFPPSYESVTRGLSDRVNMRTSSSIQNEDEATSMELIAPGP
T2 sequence (Q9NY72 23-215 partner): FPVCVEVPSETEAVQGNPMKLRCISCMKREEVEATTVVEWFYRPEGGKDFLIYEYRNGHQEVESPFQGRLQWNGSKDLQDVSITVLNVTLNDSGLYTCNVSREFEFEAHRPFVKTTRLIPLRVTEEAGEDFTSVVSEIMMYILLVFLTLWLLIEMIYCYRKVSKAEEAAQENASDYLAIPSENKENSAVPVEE
T1 sequence (Q9Y5Y9 whole entry): as the sequence (Q9Y5Y9 whole entry) above
T1 sequence (Q07699 19-218 partner): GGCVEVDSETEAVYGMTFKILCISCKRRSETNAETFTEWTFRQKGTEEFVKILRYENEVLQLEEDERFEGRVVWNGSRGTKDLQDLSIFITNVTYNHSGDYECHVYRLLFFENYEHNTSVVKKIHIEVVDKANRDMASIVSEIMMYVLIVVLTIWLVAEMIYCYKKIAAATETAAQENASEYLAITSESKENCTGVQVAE

IC50 (human Nav1.8/β1): 5 to 50 nM
SMILES: Cc1nc(F)ccc1Oc1ncc(C(F)(F)F)c(C)c1C(=O)Nc1cccc(S(=N)(=O)CC(C)(C)N)c1 (stereo not shown) [Example 53C]

IC50 (human Nav1.8/β1): 5 to 50 nM
SMILES: Cc1nc(F)ccc1Oc1cc(C(F)(F)F)c(Cl)cc1C(=O)Nc1ccnc(S(C)(=O)=O)c1 [Example 17A]

IC50 (human Nav1.8/β1): 50 to 100 nM
SMILES: Cc1cc(F)ccc1Oc1ncc(C(F)(F)F)c(C)c1C(=O)Nc1cccc(S(=N)(=O)CCCO)c1 (stereo not shown) [Example 54C]

IC50 (human Nav1.8/β1; P1, resting state block, Nav1.8/β1 HEK293 cells, holding potential −120 mV, fourth set of compounds, read-out: P1 (IC50, resting state block)): > 200 nM
SMILES: Cc1nc(F)ccc1Oc1ncc(C(F)(F)F)c(C)c1C(=O)Nc1cccc(S2(=O)=NC(=O)CC2)c1 (single isomer, unassigned) [Example 30D, 2-((6-fluoro-2-methylpyridin-3-yl)oxy)-4-methyl-N-(3-(1-oxido-3-oxo-4,5-dihydro-3H-1l6-isothiazol-1-yl)phenyl)-5-(trifluoromethyl)nicotinamide]

IC50 (human Nav1.8/β1): > 200 nM
SMILES: COc1cc(C#N)ccc1Oc1cc(C(F)(F)F)c(Cl)cc1C(=O)Nc1ccc(F)c([S@@](C)(=N)=O)c1 [Example 26A]

IC50 (human Nav1.8/β1): 100 to 200 nM
SMILES: Cc1nc(F)ccc1Oc1ncc(C(F)(F)F)c(C)c1C(=O)Nc1cccc([S@@]2(=O)=NCCC2)c1 [Example 80C]

IC50 (human Nav1.8/b3; [1]): < 5 nM | IC50 (human Nav1.8/b3; [2]): < 5 nM
SMILES: COc1cc(C#N)ccc1Oc1ncc(C(F)(F)F)c(C)c1C(=O)Nc1cccc(S(N)(=O)=O)c1 [Example 28C, 2-(4-cyano-2-methoxyphenoxy)-4-methyl-N-(3-sulfamoylphenyl)-5-(trifluoromethyl)nicotinamide]

IC50 (human Nav1.8/b3; [1]): > 200 nM | IC50 (human Nav1.8/b3; [2]): > 200 nM
SMILES: Cc1nc(F)ccc1Oc1ncc(C(F)(F)F)c(C)c1C(=O)NC12CC(C(N)=O)(C1)C2 [Example 112C]

IC50 (human Nav1.8/b3; [3]): < 5 nM | IC50 (human Nav1.8/b3; [4]): < 5 nM
SMILES: Cc1nc(F)ccc1Oc1ncc(C(F)(F)F)c(C)c1C(=O)Nc1cccc([S@@](C)(=O)=NC(=O)[C@H]2CCCN2)c1 [Example 23D, N-(3-((R)—N-(D-prolyl)-S-methylsulfonimidoyl)phenyl)-2-((6-fluoro-2-methylpyridin-3-yl)oxy)-4-methyl-5-(trifluoromethyl)nicotinamide formate]

IC50 (human Nav1.8/b3; P1 (IC50, resting state block), P1 measurement, resting state block, holding potential −120 mV, second set of compounds): < 5 nM | IC50 (human Nav1.8/b3; P2 (IC50, inactivated state block), P2 measurement, inactivated state block, inactivation step −35 mV 10 sec, second set of compounds): < 5 nM
SMILES: Cc1nc(F)ccc1Oc1ccc(C(F)(F)F)c(C)c1C(=O)Nc1cccc([S@@](C)(=O)=NC(=O)CO)c1 [Example 27B]

IC50 (human Nav1.8/b3; [5]): < 5 nM | IC50 (human Nav1.8/b3; [6]): < 5 nM
SMILES: Cc1nc(F)ccc1Oc1cc(C(F)(F)F)c(Cl)c(F)c1C(=O)Nc1cccc([S@](C)(=N)=O)c1 [Example 43A]

IC50 (human Nav1.8/b3; [1]): < 5 nM | IC50 (human Nav1.8/b3; [2]): < 5 nM
SMILES: Cc1nc(F)ccc1Oc1nc(C(F)(F)F)c(Cl)c(C)c1C(=O)Nc1ccc(F)c([S@](C)(=N)=O)c1 [Example 95C]

IC50 (human Nav1.8/b3; [5]): < 5 nM | IC50 (human Nav1.8/b3; [6]): < 5 nM
SMILES: Cc1nc(F)ccc1Oc1cc(C2CC2)c(C(F)(F)F)cc1C(=O)Nc1ccnc([S@](C)(=N)=O)c1 [Example 58A]

IC50 (human Nav1.8/b3; [5]): 5 to 50 nM | IC50 (human Nav1.8/b3; [6]): 5 to 50 nM
SMILES: Cc1nc(F)ccc1Oc1cc(C(F)(F)F)cc(F)c1C(=O)Nc1ccc(C(N)=O)cc1 [Example 36A]

IC50 (human Nav1.8/b3; [5]): < 5 nM | IC50 (human Nav1.8/b3; [6]): 5 to 50 nM
SMILES: Cc1nc(F)ccc1Oc1cc(C2CC2)c(C(F)(F)F)cc1C(=O)Nc1ccnc([S@@](C)(=N)=O)c1 [Example 57A]

IC50 (human Nav1.8/b3; [3]): 5 to 50 nM | IC50 (human Nav1.8/b3; [4]): 5 to 50 nM
SMILES: Cc1nc(F)ccc1Oc1nnc(C(F)(F)F)c(C)c1C(=O)Nc1cccc([S@@](C)(=O)=NC(=O)CO)c1 [Example 20D, (R)-3-((6-fluoro-2-methylpyridin-3-yl)oxy)-N-(3-(N-(2-hydroxyacetyl)-S-methylsulfonimidoyl)phenyl)-5-methyl-6-(trifluoromethyl)pyridazine-4-carboxamide]

IC50 (human Nav1.8/b3; [1]): 5 to 50 nM | IC50 (human Nav1.8/b3; [2]): 5 to 50 nM
SMILES: Cc1nc(F)ccc1Oc1ncc(C(F)(F)F)c(C)c1C(=O)Nc1ccc(F)c([S+](C)[O-])c1 (stereo not shown) [Example 102C]

IC50 (human Nav1.8/b3; P1 measurement, resting state block, holding potential −120 mV, third set of compounds, read-out: P1 (IC50, resting state block)): < 5 nM | IC50 (human Nav1.8/b3; P2 measurement, inactivated state block, inactivation step −35 mV 10 sec, third set of compounds, read-out: P2 (IC50, inactivated state block)): < 5 nM
SMILES: CNCCN=[S@](C)(=O)c1cccc(NC(=O)c2c(Oc3ccc(F)nc3C)ncc(C(F)(F)F)c2C)c1 [Example 109C]

IC50 (human Nav1.8/b3; [5]): < 5 nM | IC50 (human Nav1.8/b3; [6]): < 5 nM
SMILES: Cc1nc(F)ccc1Oc1cc(C(F)(F)F)c(Cl)cc1C(=O)Nc1ccc(F)c([S+](C)[O-])c1 (stereo not shown) [Example 69A]

IC50 (human Nav1.8/b3; [1]): < 5 nM | IC50 (human Nav1.8/b3; [2]): < 5 nM
SMILES: Cc1nc(F)ccc1Oc1ncc(C(F)(F)F)c(C)c1C(=O)Nc1cccc(C(N)=O)c1 [Example 119C]

IC50 (human Nav1.8/b3; [5]): < 5 nM | IC50 (human Nav1.8/b3; [6]): < 5 nM
SMILES: Cc1nc(F)ccc1Oc1cc(C(F)(F)F)c(Cl)c(C)c1C(=O)Nc1cccc([S@](C)(=N)=O)c1 [Example 10A, (R)-3-chloro-6-((6-fluoro-2-methylpyridin-3-yl)oxy)-2-methyl-N-(3-(S-methylsulfonimidoyl)phenyl)-4-(trifluoromethyl)benzamide]

IC50 (human Nav1.8/b3; [5]): < 5 nM | IC50 (human Nav1.8/b3; [6]): < 5 nM
SMILES: Cc1nc(F)ccc1Oc1cc(C(F)(F)F)c(Cl)c(C)c1C(=O)Nc1cccc([S@@](C)(=N)=O)c1 [Example 66A]

IC50 (human Nav1.8/b3; read-out: P1 (IC50, resting state block), P1 measurement, resting state block, holding potential −120 mV, third set of compounds): < 5 nM | IC50 (human Nav1.8/b3; read-out: P2 (IC50, inactivated state block), P2 measurement, inactivated state block, inactivation step −35 mV 10 sec, third set of compounds): < 5 nM
SMILES: Cc1nc(F)ccc1Oc1nc(C2CC2)c(C(F)(F)F)c(C)c1C(=O)Nc1cccc([S@](C)(=N)=O)c1 [Example 108C]

IC50 (human Nav1.8/b3; [1]): > 200 nM | IC50 (human Nav1.8/b3; [2]): > 200 nM
SMILES: Cc1cc(C#N)ccc1Oc1cc(C(F)(F)F)nnc1C(=O)Nc1cccc(S(C)(=N)=O)c1 (stereo not shown) [Example 39C, 4-(4-cyano-2-methylphenoxy)-N-(3-(S-methylsulfonimidoyl)phenyl)-6-(trifluoromethyl)pyridazine-3-carboxamide]

IC50 (human Nav1.8/b3; [1]): > 200 nM | IC50 (human Nav1.8/b3; [2]): > 200 nM
SMILES: COc1cc(C#N)ccc1Oc1ncc(-c2ccc(C(F)F)cc2)c(C)c1C(=O)Nc1ccnc([S@](C)(=N)=O)c1 [Example 17C, (R)-2-(4-cyano-2-methoxyphenoxy)-5-(4-(difluoromethyl)phenyl)-4-methyl-N-(2-(S-methylsulfonimidoyl)pyridin-4-yl)nicotinamide]

IC50 (human Nav1.8/b3; [1]): 100 to 200 nM | IC50 (human Nav1.8/b3; [2]): 100 to 200 nM
SMILES: Cc1nc(F)ccc1Oc1nc2ccccc2cc1C(=O)Nc1ccnc([S@](C)(=N)=O)c1 [Example 93C]

IC50 (human Nav1.8/b3; [1]): 5 to 50 nM | IC50 (human Nav1.8/b3; [2]): 5 to 50 nM
SMILES: Cc1nc(F)ccc1Oc1nc(C(F)(F)F)c(C#N)c(C)c1C(=O)Nc1cccc([S@](C)(=N)=O)c1 [Example 113C]

IC50 (human Nav1.8/b3; [1]): 5 to 50 nM | IC50 (human Nav1.8/b3; [2]): 5 to 50 nM
SMILES: Cc1nc(F)ccc1Oc1ncc(C2CCC2)c(C)c1C(=O)Nc1cccc([S@](C)(=N)=O)c1 [Example 99C]

IC50 (human Nav1.8/b3; [1]): 50 to 100 nM | IC50 (human Nav1.8/b3; [2]): 50 to 100 nM
SMILES: CCCc1cnc(Oc2ccc(F)nc2C)c(C(=O)Nc2cccc([S@](C)(=N)=O)c2)c1C [Example 103C]
